The source of these data is patent publication US20240025906A1 (NEURON23, INC., priority 2022, published 2024).

For experiment [1], the system named is JAK1/TYK2 pSTAT5 (Tyr694/699) in THP-1 cell line. The experiment can be described thus: IFNa-stimulated JAK1/TYK2 pSTAT5 (Tyr694/699) inhibition cellular assay, AlphaLISA. The format is cell-based. As to conditions: Homo sapiens; THP-1 cells, IFNa-stimulated pSTAT5 (Tyr694/699), AlphaLISA (Assay B); read-out: Cellular_THP1_IFNa-pSTATS_TYK2. In short, it runs like this: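 THP-1 cells (2e4/well) in HBSS preincubated 1 h at 37° C. with compound (final 10000–0.04 nM, 8 points, 6-fold), then stimulated with IFNa (100 ng/mL stock) for 30 min before lysis. pSTAT5 (Tyr694/699) read by AlphaLISA at 615 nm; IC50 from four-parameter logistic fit with bottom fixed at 0 and Hill slope at −1.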
In general terms: In Alpha technology, singlet oxygen from a donor bead excites a nearby acceptor bead.

For a further experiment, the target named is T1, TYK2 JH2 (Homo sapiens, UniProt P29597).
T1 construct: purchased DiscoverX (KINOMEscan KdELECT service); host or cells: E. coli BL21-derived (T7 phage display) or HEK-293
The experiment can be described thus: TYK2 JH2 binding assay (KINOMEscan KdELECT competitive binding). As to conditions: TYK2 JH2 domain, KINOMEscan KdELECT (Assay A); read-out: Biochemical TYK2_DiscoverX_JH2_BND_Kd. In short, it runs like this:
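Beads carrying a biotinylated ligand were mixed with tagged JH2 kinase and compound (11 points, 3-fold steps, 0.9% DMSO) and shaken 1 h at room temperature. After washing, kinase was released with 0.5 μM untagged ligand over 30 min and measured by qPCR to derive Kd.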

The subject of a further experiment is Psoriasis patients. The settings on record: humans; TYK2 inhibitor; background statement citing Armstrong et al, Ann of Rheu Dis, 2020; cited from earlier work.

T1 sequence (P29597 589-875 limits assumed): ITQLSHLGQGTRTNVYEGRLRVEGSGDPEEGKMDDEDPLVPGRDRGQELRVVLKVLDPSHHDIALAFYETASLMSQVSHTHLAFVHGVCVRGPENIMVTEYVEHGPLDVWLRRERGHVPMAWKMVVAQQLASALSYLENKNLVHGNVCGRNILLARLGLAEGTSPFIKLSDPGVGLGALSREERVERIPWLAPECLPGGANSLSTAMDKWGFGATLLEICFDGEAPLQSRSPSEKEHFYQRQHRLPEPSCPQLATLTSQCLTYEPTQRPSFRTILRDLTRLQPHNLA

For `CNc1ncc(C#Cc2ccc(OC)cn2)c2cc(NC(=O)C3CCOCC3)ncc12` [Example 1081, N-[5-[2-(5-methoxy-2-pyridyl)ethynyl]-8-(methylamino)-2,7-naphthyridin-3-yl]tetrahydropyran-4-carboxamide], the IC50 in experiment [1] was no more than 500 nM. Moreover, the Kd on TYK2 JH2 was no more than 100 nM. The like results for `CNc1ncc(C#Cc2ccc(OC)cn2)c2cc(NC(=O)N3CCOCC3)ncc12` [Example 1082, N-[5-[2-(5-methoxy-2-pyridyl)ethynyl]-8-(methylamino)-2,7-naphthyridin-3-yl]morpholine-4-carboxamide] were, in that order, no more than 500 nM and no more than 100 nM.

In the case of `CNc1ncc(C#Cc2ccc(OC)cn2)c2cc(NC(=O)N3CC(OC)C3)ncc12` [Example 1083, 3-methoxy-N-[5-[2-(5-methoxy-2-pyridyl)ethynyl]-8-(methylamino)-2,7-naphthyridin-3-yl]azetidine-1-carboxamide], the IC50 in experiment [1] was greater than 500 nM. In addition, on TYK2 JH2, the Kd was no more than 100 nM. For `CNc1ncc(C#Cc2ccc(OC)cn2)c2cc(NC(=O)C3COC3)ncc12` [Example 1084, N-[5-[2-(5-methoxy-2-pyridyl)ethynyl]-8-(methylamino)-2,7-naphthyridin-3-yl]oxetane-3-carboxamide], in experiment [1], the IC50 is greater than 500 nM. Further, the Kd on TYK2 JH2 was no more than 100 nM.

For the molecule `CNc1ncc(-c2cn3cc(N4CCO[C@@H](C)C4)ccc3n2)c2cc(NC(=O)C3(F)CC3)ncc12` [Example 1085, 1-fluoro-N-[8-(methylamino)-5-[6-[(2S)-2-methylmorpholin-4-yl]imidazo[1,2-a]pyridin-2-yl]-2,7-naphthyridin-3-yl]cyclopropanecarboxamide], the IC50 in experiment [1] was no more than 500 nM. Further, the Kd at TYK2 JH2 is no more than 100 nM. For the molecule `CNc1ncc(-c2nc3cc(N(C)C(C)=O)ccc3o2)c2cc(Nc3cccc(OC)n3)ncc12` [Example 1086, N-[2-[6-[(6-methoxy-2-pyridyl)amino]-1-(methylamino)-2,7-naphthyridin-4-yl]-1,3-benzoxazol-5-yl]-N-methyl-acetamide], the IC50 in experiment [1] is no more than 500 nM. Moreover, the Kd at TYK2 JH2 is no more than 100 nM.

As for `CNc1ncc(C#Cc2ccc(OC)cn2)c2cc(Nc3cccn(-c4ccccn4)c3=O)ncc12` [Example 1087, 3-[[5-[2-(5-methoxy-2-pyridyl)ethynyl]-8-(methylamino)-2,7-naphthyridin-3-yl]amino]-1-(2-pyridyl)pyridin-2-one], the IC50 in experiment [1] was greater than 500 nM. Also, the Kd on TYK2 JH2 is no more than 100 nM.

In the case of `CNc1ncc(-c2nc3ccc(N4CCOCC4)cn3n2)c2cc(Nc3cc(C(C)(C)O)ccn3)ncc12` [Example 1088, 2-[2-[[8-(methylamino)-5-(6-morpholino-[1,2,4]triazolo[1,5-a]pyridin-2-yl)-2,7-naphthyridin-3-yl]amino]-4-pyridyl]propan-2-ol], the IC50 in experiment [1] is no more than 500 nM. Moreover, at TYK2 JH2, the Kd was no more than 100 nM.

As to `CNc1ncc(-c2nc3ccc(N4CCOCC4)cn3n2)c2cc(Nc3nccc(C(C)(C)O)c3F)ncc12` [Example 1089, 2-[3-fluoro-2-[[8-(methylamino)-5-(6-morpholino-[1,2,4]triazolo[1,5-a]pyridin-2-yl)-2,7-naphthyridin-3-yl]amino]-4-pyridyl]propan-2-ol], the IC50 in experiment [1] is no more than 500 nM. In addition, the Kd at TYK2 JH2 was no more than 100 nM.

Take `CNc1ncc(-c2nc3ccc(N4CCOCC4)cn3n2)c2cc(Nc3ccc(C(F)(F)F)cn3)ncc12` [Example 1090, N1-methyl-4-(6-morpholino-[1,2,4]triazolo[1,5-a]pyridin-2-yl)-N6-[5-(trifluoromethyl)-2-pyridyl]-2,7-naphthyridine-1,6-diamine]: the IC50 in experiment [1] was greater than 500 nM. Further, the Kd at TYK2 JH2 is no more than 100 nM. For `CNc1ncc(-c2nc3cc(NC(=O)C4CC4)ccc3o2)c2cc(NC(=O)C3CC3)ncc12` [Example 1091, N-(2-(6-(cyclopropanecarboxamido)-1-(methylamino)-2,7-naphthyridin-4-yl)benzo[d]oxazol-5-yl)cyclopropanecarboxamide], in experiment [1], the IC50 is no more than 500 nM. Further, the Kd on TYK2 JH2 was no more than 100 nM. The like results for `CCC(=O)Nc1ccc2oc(-c3cnc(NC)c4cnc(NC(=O)C5CC5)cc34)nc2c1` [Example 1092, N-(8-(methylamino)-5-(5-propionamidobenzo[d]oxazol-2-yl)-2,7-naphthyridin-3-yl)cyclopropanecarboxamide] were, in that order, no more than 500 nM and no more than 100 nM. On to `CNc1ncc(-c2nc3cc(NC(=O)CC4CC4)ccc3o2)c2cc(NC(=O)C3CC3)ncc12` [Example 1093, N-(5-(5-(2-cyclopropylacetamido)benzo[d]oxazol-2-yl)-8-(methylamino)-2,7-naphthyridin-3-yl)cyclopropanecarboxamide], for which, in experiment [1], the IC50 was no more than 500 nM. For the same molecule, at TYK2 JH2, the Kd was no more than 100 nM. Take `CNc1ncc(-c2nc3ccc(N4CCOCC4)cc3s2)c2cc(NC(=O)C3CC3)ncc12` [Example 1094, N-(8-(methylamino)-5-(6-morpholinobenzo[d]thiazol-2-yl)-2,7-naphthyridin-3-yl)cyclopropanecarboxamide]: in experiment [1], the IC50 was no more than 500 nM. At TYK2 JH2, the Kd was no more than 100 nM.

On to `[2H]C([2H])(C)Nc1ncc(-c2nc3ccc(N4CCOCC4)cn3n2)c2cc(NC(=O)[C@H]3C[C@H]3C)ncc12` [Example 1095, (1S,2R)—N-(8-((ethyl-1,1-d2)amino)-5-(6-morpholino-[1,2,4]triazolo[1,5-a]pyridine-2-yl)-2,7-naphthyridin-3-yl)-2-methylcyclopropane-1-carboxamide], for which the IC50 in experiment [1] was no more than 500 nM. Also, the Kd at TYK2 JH2 is no more than 100 nM. The like results for `[2H]C([2H])(C)Nc1ncc(-c2nc3ccc(N4CCOCC4)cn3n2)c2cc(NC(=O)C3CC3)ncc12` [Example 1096, N-(8-((ethyl-1,1-d2)amino)-5-(6-morpholino-[1,2,4]triazolo[1,5-a]pyridin-2-yl)-2,7-naphthyridin-3-yl)cyclopropanecarboxamide] were, in that order, no more than 500 nM and no more than 100 nM. On to `CNc1ncc(-c2nc3cc(OC)ccc3o2)c2cc(NC(=O)NC3CC3)ncc12` [Example 1097, 1-cyclopropyl-3-(5-(5-methoxybenzo[d]oxazol-2-yl)-8-(methylamino)-2,7-naphthyridin-3-yl)urea], for which the IC50 in experiment [1] was no more than 500 nM. At TYK2 JH2, the Kd was no more than 100 nM. Regarding `CNc1ncc(-c2nc3cc(N4CCOCC4)ccc3o2)c2cc(Nc3ccc(C(C)(C)O)cn3)ncc12` [Example 1098], the IC50 in experiment [1] was no more than 500 nM. The Kd on TYK2 JH2 is no more than 100 nM. Regarding `CNc1ncc(-c2nc3cc(C(=O)NC4CC4)ccc3o2)c2cc(NC(=O)C3CC3)ncc12` [Example 1099, 2-(6-(cyclopropanecarboxamido)-1-(methylamino)-2,7-naphthyridin-4-yl)-N-cyclopropylbenzo[d]oxazole-5-carboxamide], in experiment [1], the IC50 is no more than 500 nM. Besides, the Kd at TYK2 JH2 was no more than 100 nM.

For `CCNC(=O)c1ccc2oc(-c3cnc(NC)c4cnc(NC(=O)C5CC5)cc34)nc2c1` [Example 1100, 2-(6-(cyclopropanecarboxamido)-1-(methylamino)-2,7-naphthyridin-4-yl)-N-ethylbenzo[d]oxazole-5-carboxamide], the IC50 in experiment [1] is no more than 500 nM. The Kd on TYK2 JH2 was no more than 100 nM.

`CNc1ncc(-c2nc3cc(C(=O)NCC4CC4)ccc3o2)c2cc(NC(=O)C3CC3)ncc12` [Example 1101, 2-(6-(cyclopropanecarboxamido)-1-(methylamino)-2,7-naphthyridin-4-yl)-N-(cyclopropylmethyl)benzo[d]oxazole-5-carboxamide]: in experiment [1], the IC50 is no more than 500 nM. For the same molecule, on TYK2 JH2, the Kd was no more than 100 nM.

Regarding `[2H]C([2H])(C)Nc1ncc(-c2nc3cc(OC)ccc3o2)c2cc(NC(=O)C3CC3)ncc12` [Example 1102, N-(8-((ethyl-1,l-rig)amino)-5-(5-methoxybenzo[d]oxazol-2-yl)-2,7-naphthyridin-3-yl)cyclopropanecarboxamide], the IC50 in experiment [1] is no more than 500 nM. Further, the Kd at TYK2 JH2 was no more than 100 nM.

Regarding `CNc1ncc(-c2cc3ccncc3o2)c2cc(Nc3cccc(OCCCCO)n3)ncc12` [Example 1103, 4-((6-((5-(furo[2,3-c]pyridin-2-yl)-8-(methylamino)-2,7-naphthyridin-3-yl)amino)pyridin-2-yl)oxy)butan-1-ol], in experiment [1], the IC50 is no more than 500 nM. On TYK2 JH2, the Kd was no more than 100 nM. Turning to `CNc1ncc(C#Cc2ccc(-n3ccccc3=O)cc2)c2cc(NC(=O)C3(F)CC3)ncc12` [Example 1138, 1-fluoro-N-(8-(methylamino)-5-((4-(2-oxopyridin-1(2H)-yl)Phenyl)ethynyl)-2,7-naphthyridin-3-yl)cyclopropanecarboxamide], the IC50 in experiment [1] is no more than 500 nM. For the same molecule, the Kd at TYK2 JH2 was no more than 100 nM.

Take `CNc1ncc(C#Cc2ccc(-n3c(=O)ccn3C)cc2)c2cc(NC(=O)[C@H]3C[C@H]3C)ncc12` [Example 1142, (1S,2R)-2-methyl-N-[8-(methylamino)-5-[2-[4-(2-methyl-5-oxo-pyrazol-1-yl)phenyl]ethynyl]-2,7-naphthyridin-3-yl]cyclopropanecarboxamide]: the IC50 in experiment [1] is no more than 500 nM. Besides, the Kd on TYK2 JH2 is no more than 100 nM. Consider deucravacitinib, for which the “efficacy in Psoriasis patients” value with Psoriasis patients is recorded as “efficacy”.
